Data as given in PMC12693419, “Design, Synthesis, Biological Evaluation, and In Silico Studies of Novel Multitarget Cinnamic Acid Hybrids” (Molecules, 2025).

How the values were obtained:
[1] = In vitro determination of NO release with Griess reagent; conditions: 100 μM, L-cysteine, pH 7.4, 37 °C, 60 min
Excerpt: This assay evaluates the ability of nitrate esters to release nitric oxide (NO). First, sodium nitroprusside (SNP) reacts with the thiol compound, cysteine, which serves as a reducing agent (Scheme 5). The thiol donates electrons, facilitating the breakdown of the nitroprusside complex. Afterwards, the reaction leads to the formation of intermediate complexes, such as nitrosothiol species and the decomposition of these intermediates results in the release of nitric oxide (NO). According to the literature, measurements are conducted both in the presence and absence of the thiol agent, cysteine. No significant difference was observed between the two experimental conditions, and the results were reproducible. Sodium nitroprusside (SNP) was used as the reference compound [65].
The compounds (from a 10 mM stock solution in DMSO, final concentration 100 μM) are added (20 μL) to each test tube. Then, 2 mL of phosphate buffer solution (pH 7.4) is added. L-cysteine, used as the thiol agent, is added to the mixture at a final concentration of 0.5 mM. The solution is incubated at 37 °C for 60 min, after which 1 mL is removed and mixed with 250 μL of Griess reagent (4 g sulfanilamide, 0.2 g N-(1-naphthyl)-ethylenediamine dihydrochloride, and 10 mL of H3PO4 solution, final volume adjusted to 100 mL). The mixture is allowed to stand for 10 min at room temperature, and the absorbance of the produced compound is measured at 540 nm. Sodium nitroprusside (SNP) is used as the reference compound. The results are presented as the release of NO2^− (% NO2^− (mol/mol)) induced by the compounds in the presence of L-cysteine (Table 6).

[2] = biological target: T1, soybean lipoxygenase isoenzyme-1 (SLOX-1) (Glycine max, UniProt P08170); experiment: In vitro inhibition of soybean lipoxygenase; format: biochemical; conditions: pH 9.0, read-out: LOX Inh. IC50
T1 construct: purchased Merck and Sigma-Aldrich
T1 sequence (P08170 1-839): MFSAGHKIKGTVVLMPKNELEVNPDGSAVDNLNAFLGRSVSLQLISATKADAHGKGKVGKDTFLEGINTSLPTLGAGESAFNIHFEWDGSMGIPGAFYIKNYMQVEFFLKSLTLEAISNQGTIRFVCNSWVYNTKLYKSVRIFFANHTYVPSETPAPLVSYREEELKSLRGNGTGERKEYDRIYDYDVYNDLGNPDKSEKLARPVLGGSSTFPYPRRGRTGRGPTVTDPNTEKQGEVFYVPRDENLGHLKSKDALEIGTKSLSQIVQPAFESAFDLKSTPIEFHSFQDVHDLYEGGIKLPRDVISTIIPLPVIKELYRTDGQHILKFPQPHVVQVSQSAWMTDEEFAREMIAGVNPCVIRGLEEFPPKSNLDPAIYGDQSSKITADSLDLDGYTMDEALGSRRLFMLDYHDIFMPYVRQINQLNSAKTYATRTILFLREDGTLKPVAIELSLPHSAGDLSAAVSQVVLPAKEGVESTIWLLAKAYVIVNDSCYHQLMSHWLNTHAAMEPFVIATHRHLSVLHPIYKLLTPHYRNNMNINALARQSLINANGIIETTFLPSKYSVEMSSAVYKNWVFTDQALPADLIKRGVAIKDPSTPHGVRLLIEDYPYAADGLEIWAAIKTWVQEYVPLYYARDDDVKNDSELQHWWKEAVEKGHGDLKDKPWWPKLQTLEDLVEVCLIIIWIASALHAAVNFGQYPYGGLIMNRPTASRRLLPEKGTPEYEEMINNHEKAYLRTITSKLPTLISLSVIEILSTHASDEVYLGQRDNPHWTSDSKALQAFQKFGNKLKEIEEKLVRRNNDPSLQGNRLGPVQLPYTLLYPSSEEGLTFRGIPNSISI
Procedure: In vitro anti-LOX activities were evaluated using soybean lipoxygenase isoenzyme-1 (SLOX-1), a commonly used model for mammalian LOXs.
An in vitro study was conducted following a previously reported method. The tested compounds were dissolved in DMSO (100 µM) and incubated at room temperature with 0.1 mL of sodium linoleate as the substrate and 0.2 mL of soybean lipoxygenase solution in Tris-HCl buffer (pH 9.0).

bovine serum albumin = biological target: T2, bovine serum albumin (Bos taurus, UniProt P02769); experiment: In vitro inhibition of albumin denaturation; conditions: heat denaturation, 60 °C 10 min
T2 construct: bovine serum albumin solution (fraction V); purchased Merck and Sigma-Aldrich; host or cells: bovine serum (fraction V)
How it was run: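 Bovine serum albumin (fraction V, 1% w/v in phosphate buffer, pH 7.4) mixed with test compound, held 15 min at 37 °C, then heated 10 min at 60 °C. After cooling, turbidity read as absorbance at 660 nm against a DMSO blank.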

COX-1 = biological target: T3, COX-1 (Homo sapiens, UniProt P23219); experiment: In vitro inhibition of COX-1; format: biochemical
T3 construct: purchased Merck and Sigma-Aldrich
Excerpt: Enzyme inactivation can occur due to the accumulation of hydroperoxides formed from arachidonic acid or other fatty acid substrates. In order to prevent this in the in vitro experiment used for testing COX inhibition activity of the new molecules, a co-substrate like N,N,N′,N′-tetramethyl-p-phenylenediamine (TMPD) is included, as it undergoes co-oxidation by PGG2. The oxidized TMPD has a maximum absorbance at 590 nm. COX enzymes also depend on heme (Fe^3+-protoporphyrin IX) as a cofactor, which can dissociate during purification. To ensure maximum enzyme activity, heme is added to the reaction mixture during the in vitro assay for ovine COX-2 inhibition and COX-1 inhibition.
Cyclooxygenase (COX) activity was measured using arachidonic acid (AA) as the substrate and N,N,N′,N′-tetramethylphenylenediamine (TMPD) as the co-substrate following the reported method. […] The substrate oxidation was monitored at room temperature by recording the increase in absorbance at 590 nm. Absorbance due to the spontaneous oxidation of TMPD was subtracted from the initial oxidation rate observed in the presence of AA. The inhibitory activity of the test compounds at a concentration of 100 μM was evaluated after a 6-min pre-incubation with the enzyme in the presence of heme and TMPD.

T2 sequence (P02769 25-607): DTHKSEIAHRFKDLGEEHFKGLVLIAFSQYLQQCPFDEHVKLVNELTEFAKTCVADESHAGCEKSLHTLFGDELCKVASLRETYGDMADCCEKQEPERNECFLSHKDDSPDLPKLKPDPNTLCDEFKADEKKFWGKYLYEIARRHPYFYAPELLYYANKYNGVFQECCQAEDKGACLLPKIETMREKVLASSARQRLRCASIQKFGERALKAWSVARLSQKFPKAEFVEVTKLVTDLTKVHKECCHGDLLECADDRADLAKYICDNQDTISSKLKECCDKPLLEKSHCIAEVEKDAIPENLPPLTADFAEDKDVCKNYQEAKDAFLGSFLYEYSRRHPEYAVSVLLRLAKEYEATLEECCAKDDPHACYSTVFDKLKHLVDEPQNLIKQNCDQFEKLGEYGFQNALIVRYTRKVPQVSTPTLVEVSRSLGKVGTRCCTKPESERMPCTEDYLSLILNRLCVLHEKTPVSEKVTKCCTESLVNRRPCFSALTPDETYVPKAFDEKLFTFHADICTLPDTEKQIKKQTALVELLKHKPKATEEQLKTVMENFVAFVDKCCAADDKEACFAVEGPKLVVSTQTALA
T3 sequence (P23219 24-599): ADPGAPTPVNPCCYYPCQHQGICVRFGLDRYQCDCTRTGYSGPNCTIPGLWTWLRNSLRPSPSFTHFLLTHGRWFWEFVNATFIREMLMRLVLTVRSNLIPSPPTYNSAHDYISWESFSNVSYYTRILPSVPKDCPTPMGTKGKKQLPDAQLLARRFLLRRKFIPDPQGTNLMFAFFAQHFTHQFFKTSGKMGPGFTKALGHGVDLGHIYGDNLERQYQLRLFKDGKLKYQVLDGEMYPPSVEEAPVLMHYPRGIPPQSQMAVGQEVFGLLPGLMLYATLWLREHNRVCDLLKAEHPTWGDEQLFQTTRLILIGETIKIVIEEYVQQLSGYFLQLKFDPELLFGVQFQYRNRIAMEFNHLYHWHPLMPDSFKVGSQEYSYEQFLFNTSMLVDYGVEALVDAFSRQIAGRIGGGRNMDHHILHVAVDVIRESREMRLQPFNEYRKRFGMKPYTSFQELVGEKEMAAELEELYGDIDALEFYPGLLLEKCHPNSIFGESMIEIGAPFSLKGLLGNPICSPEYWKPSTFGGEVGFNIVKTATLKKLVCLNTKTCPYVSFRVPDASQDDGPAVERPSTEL

Row | IC50 [2] | Albumin (inhibition of albumin denaturation) (bovine serum albumin) | inhibition at 100 µM (COX-1) | SMILES | %NO2^− Release mol/mol at 100 μΜ [1] | COX-1 at 100 μM (% inhibition) (COX-1)
1 | 10 µM | no | 0% | C/C(=N\O)c1ccc(NC(=O)COC(=O)/C=C/c2cccs2)cc1 [Compound 6c, 2-((4-((E)-1-(Hydroxyimino)ethyl)phenyl)amino)-2-oxoethyl (E)-3-(thiophen-2-yl)acrylate] | 4% | did not show any inhibition activity and no
2 | 60 µM | no | 16.7% | C/C(=N\O)c1ccc(NC(=O)COC(=O)/C(=C/c2cccs2)c2ccccc2)cc1 [Compound 6i, 2-((4-((E)-1-(Hydroxyimino)ethyl)phenyl)amino)-2-oxoethyl (E)-2-phenyl-3-(thiophen-2-yl)acrylate] | no activity and no | –
3 | 65 µM | no | 0% | O=C(/C=C/c1cc2ccccc2s1)OCc1c(-c2ccccc2)no[n+]1[O-] [Compound 9e, (E)-3-(((3-(Benzo[b]thiophen-2-yl)acryloyl)oxy)methyl)-4-phenyl-1,2,5-oxadiazole 2-oxide] | no | did not show any inhibition activity and no
